Patent US11207312B2, “Metallo-beta-lactamase inhibitors and methods of use thereof” (priority 2017, dated 2021)

Experiments:
[1] = tested on: P. aeruginosa MB9799 (efflux-, IMP-1 plasmid); format: cell-based, Pseudomonas aeruginosa; conditions: efflux − (MB9799) strain; imipenem at 2 μg/mL; in the presence of a class A, C, D serine β-lactamase inhibitor closely related to relebactam
Outline: (§1)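 PAO1-derived isogenic pair (oprD+, inducible AmpC), efflux+ MB5919 or efflux− MB5890 parent, carrying an electroporated IMP-1 plasmid from a clinical isolate. Microbroth MIC with fixed imipenem and/or ceftazidime (usually CLSI breakpoint) plus fixed class A/C inhibitor; MBL inhibitor serially titrated, concentration restoring susceptibility recorded.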

VIM-1 = VIM-1 (Pseudomonas aeruginosa (strain ATCC 15692 / DSM 22644 / CIP 104116 / JCM 14847 / LMG 12228 / 1C / PRS 101 / PAO1), UniProt A0A0F7KYQ8); test: biochemical; conditions: CCF2-FA fluorescence assay, 2 hours at 25° C.; read-out: VIM1 IC50
Outline: (§2)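 Buffer 100 mM KH2PO4 pH 7, 0.005% Tween-20, 10 μM ZnSO4. NDM-1 1 pM, IMP-1 2 pM, VIM-1 30 pM final; CCF2-FA 1.25 μM. Cpd 20–0.00063 μM, 2 h, 25° C. Ex 405/Em 460 nm; IC50 via 4-parameter curve.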

IMP-1 = IMP-1 (Serratia marcescens, UniProt P52699); test: biochemical; conditions: CCF2-FA fluorescence assay, 2 hours at 25° C.; read-out: IMP1 IC50
IMP-1, sequence (P52699 whole entry, looked up, species assumed): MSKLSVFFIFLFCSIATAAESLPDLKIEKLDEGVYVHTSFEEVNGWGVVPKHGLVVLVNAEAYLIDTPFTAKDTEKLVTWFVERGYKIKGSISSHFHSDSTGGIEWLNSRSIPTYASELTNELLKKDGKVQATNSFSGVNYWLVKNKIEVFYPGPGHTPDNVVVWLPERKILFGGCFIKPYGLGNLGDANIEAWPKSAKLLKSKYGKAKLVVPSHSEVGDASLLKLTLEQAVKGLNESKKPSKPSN
Outline: as §2

[2] = tested on: Klebsiella pneumoniae expressing VIM-1 (IHMA599644); format: cell-based; conditions: with imipenem 1 μg/ml; 95% inhibition of bacterial growth
Outline: (§3)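 Imipenem 1 μg/ml + inhibitor titration in cation-adjusted MHB (1.1× stock medium); overnight-cultured colonies suspended in saline, diluted 1:100. 35 °C, 22–24 h; absorbance read. MITC95 = lowest compound conc giving 95% growth inhibition.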

[3] = tested on: Escherichia coli expressing NDM-1 (CLB30016); format: cell-based; conditions: with imipenem 1 μg/ml; 95% inhibition of bacterial growth
Outline: as §3

[4] = tested on: Serratia marcescens expressing IMP-1 (CL5741); format: cell-based; conditions: with imipenem 1 μg/ml; 95% inhibition of bacterial growth
Outline: as §3

VIM-2 = VIM-2 (Escherichia coli, UniProt Q5U7L7); test: biochemical; conditions: CCF2-FA fluorescence assay; read-out: VIM2 IC50
NDM-1 = NDM-1 (Klebsiella pneumoniae, UniProt C7C422); test: biochemical; format: biochemical; conditions: CCF2-FA fluorescence assay, 2 hours at 25° C.
NDM-1, sequence (C7C422 whole entry, looked up, species assumed): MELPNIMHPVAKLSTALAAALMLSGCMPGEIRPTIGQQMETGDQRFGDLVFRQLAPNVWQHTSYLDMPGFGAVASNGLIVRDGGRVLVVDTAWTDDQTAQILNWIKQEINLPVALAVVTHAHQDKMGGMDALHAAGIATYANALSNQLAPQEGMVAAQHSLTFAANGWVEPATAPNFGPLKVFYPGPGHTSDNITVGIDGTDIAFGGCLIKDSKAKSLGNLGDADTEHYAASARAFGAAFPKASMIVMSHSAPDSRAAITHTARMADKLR
Outline: as §2

[5] = tested on: P. aeruginosa MB9798 (efflux+, IMP-1 plasmid); conditions: for MB9798 MITC95 P. aeruginosa uM Efflux WT: efflux + (MB9798) strain, imipenem at 2 μg/mL, in the presence of a class A, C, D serine β-lactamase inhibitor closely related to relebactam; for Efflux ratio: fold difference between efflux+ (MB9798) and efflux− (MB9799) strains
Outline: as §1

Compound	MB9799 MITC95 P. aeruginosa uM Efflux Mutant [1] [µM]	IC50 (VIM-1) [nM]	IC50 (IMP-1) [nM]	IHMA599644 K. pneumoniae MITC95 VIM [2] [µM]	CLB30016 E. coli MITC95 NDM [3] [µM]	CL5741 S. marcescens MITC95 IMP [4] [µM]	IC50 (VIM-2) [nM]	IC50 (NDM-1) [nM]	MB9798 MITC95 P. aeruginosa uM Efflux WT [5] [µM]	Efflux ratio [5]
NCC1CCN(c2ccc(S(=O)(=O)N[C@@H]3CCNC3)c(S(N)(=O)=O)c2-c2nn[nH]n2)C(=O)C1 (stereo partly shown) [Example 149]	3.13	0.96	104	1.56	0.20	1.56	48.1	4.46	6.25	2.00
NCCOCC1CCN(c2ccc(S(=O)(=O)NC[C@H](O)CN)c(S(N)(=O)=O)c2-c2nn[nH]n2)CC1 [Example 208]	0.78	0.11	1.84	3.13	1.56	0.78	1.19	1.05	0.78	1.00
NC[C@@H](O)CNS(=O)(=O)c1ccc(N2CCC3(CCNC3)C2)c(-c2nn[nH]n2)c1S(N)(=O)=O (stereo partly shown) [Example 133, di-trifluoroacetic acid]	1.56	2.07	24	0.78	0.78	1.56	57.9	12.7	3.13	2.00
NS(=O)(=O)c1c(S(=O)(=O)N[C@@H]2CCNC2)ccc(N2CC[C@@H](CO)C2)c1-c1nnn[nH]1 [Example 70, 4-[(3R)-3-(hydroxymethyl)pyrrolidin-1-yl]-N1-[(3R)-pyrrolidin-3-yl]-3-(1H-tetrazol-5-yl)benzene-1,2-disulfonamide]	1.95	0.57	0.51	7.81	3.91	3.91	1.25	0.45	2.34	1.20
NS(=O)(=O)c1c(S(=O)(=O)N[C@@H]2CCNC2)ccc(N2CCC(O)CC2=O)c1-c1nn[nH]n1 (stereo partly drawn) [Example 159, 4-(4-hydroxy-2-oxopiperidin-1-yl)-N1-((R)-pyrrolidin-3-yl)-3-(2H-tetrazol-5-yl)benzene-1,2-disulfonamide]	1.56	0.38	15.9	6.25	1.56	0.78	2.62	0.61	6.25	4.00
NS(=O)(=O)c1c(S(=O)(=O)N[C@@H]2CCNC2)ccc(N2CCC(CCO)C2)c1-c1nnn[nH]1 (stereo partly drawn) [Example 81, 4-[3-(2-hydroxyethyl)pyrrolidin-1-yl]-N1-[(3R)-pyrrolidin-3-yl]-3-(1H-tetrazol-5-yl)benzene-1,2-disulfonamide]	3.13	0.51	0.62	6.25	3.13	3.13	1	0.64	6.25	2.00
NC[C@H](N)CNS(=O)(=O)c1ccc(N2CCC(c3c[nH]cn3)CC2)c(-c2nn[nH]n2)c1S(N)(=O)=O [Example 168, (S)-4-(4-(1H-imidazol-4-yl)piperidin-1-yl)-N1-(2,3-diaminopropyl)-3-(2H-tetrazol-5-yl)benzene-1,2-disulfonamide]	0.78	0.07	0.24	1.56	0.39	0.78	0.48	0.17	1.56	2.00
Cl.Cl.NCC1CCN(c2ccc(S(=O)(=O)N[C@@H]3CCNC3)c(S(N)(=O)=O)c2-c2nn[nH]n2)CC1 [Example 135, (R)-4-(4-(aminomethyl)piperidin-1-yl)-N1-(pyrrolidin-3-yl)-3-(2H-tetrazol-5-yl)benzene-1,2-disulfonamide dihydrochloride]	0.39	0.16	3.43	1.17	0.59	0.78	3	1.13	0.59	1.50
NC[C@@H](O)CNS(=O)(=O)c1ccc(N2CCC3(CC2)CNC(N)=N3)c(-c2nn[nH]n2)c1S(N)(=O)=O [Example 171, (R)—N1-(3-amino-2-hydroxypropyl)-4-(2-amino-1,3,8-triazaspiro [4.5]dec-1-en-8-yl)-3-(2H-tetrazol-5-yl)benzene-1,2-disulfonamide]	0.39	0.92	7.39	0.78	0.39	0.78	27.8	3.38	0.78	2.00
NS(=O)(=O)c1c(S(=O)(=O)N[C@@H]2CCNC2)ccc(N2CCN(CCCO)CC2)c1-c1nnn[nH]1 [Example 93, 4-[4-(3-hydroxypropyl)piperazin-1-yl]-N1-[(3R)-pyrrolidin-3-yl]-3-(1H-tetrazol-5-yl)benzene-1,2-disulfonamide]	1.56	3.62	2.52	1.56	0.39	0.20	6.73	1.71	3.13	2.00
CN(C)CC1(O)CCN(c2ccc(S(=O)(=O)N[C@@H]3CCNC3)c(S(N)(=O)=O)c2-c2nnn[nH]2)CC1 [Example 100, 4-{4-[(dimethylamino)methyl]-4-hydroxypiperidin-1-yl}-N1-[(3R)-pyrrolidin-3-yl]-3-(1H-tetrazol-5-yl)benzene-1,2-disulfonamide]	6.25	12.4	37	12.50	12.50	6.25	162	17.5	12.50	2.00
NCCC1CN(c2ccc(S(=O)(=O)NC[C@H](O)CN)c(S(N)(=O)=O)c2-c2nn[nH]n2)C1 [Example 144, (R)-N1-(3-amino-2-hydroxypropyl)-4-(3-(2-aminoethyl)azetidin-1-yl)-3-(2H-tetrazol-5-yl)benzene-1,2-disulfonamide]	3.13	4.23	89.6	3.13	3.13	6.25	200	111	12.50	4.00
NOC1CCCN(c2ccc(S(=O)(=O)N[C@@H]3CCNC3)c(S(N)(=O)=O)c2-c2nn[nH]n2)C1=O (stereo partly shown) [Example 150]	3.13	0.38	17.1	12.50	1.56	6.25	1.52	0.62	12.50	4.00
